Test results taken from US9701663B2, “Sulfonamide retinoic acid receptor-related orphan receptor modulators and uses thereof” (INNOV17 LLC, priority 2014, dated 2017).

How the values were obtained:
Format in all cases: cell-based
Conditions in all cases: 72 h; human CD4+ T cells under TH17-polarizing conditions, 3 days; supernatant ELISA
IL-21 = assay: Human TH17 cytokine inhibition measured by ELISA: IL-21
Experimental: (§1) Human TH17 Cytokine Inhibition as Measured by ELISA
(§2) Peripheral blood mononuclear cells (PBMCs) were sourced from freshly prepared leukocyte enriched plasma (buffy coat) from healthy donors (New York Blood Center). PBMCs were isolated by density gradient centrifugation using Ficoll-Paque™ PLUS (GE Healthcare). Human CD4+ T cells were seeded into 96-well plates (5×10^4 cells/well) and activated with plate-bound anti-human (h)-CD3 antibody and soluble h-aCD28 (both at 1 ug/ml; eBioscience) and differentiated into TH17 cells with 20 ng/mL h-IL-6, 5 ng/mL h-TGF-β1, 10 ng/mL h-IL-23 (eBioscience) and 10 ng/mL IL-1 β (Miltenyi Biotec) in serum-free TexMACS Medium (Miltenyi Biotec) supplemented with 1% Penicillin/Streptomycin (Lonza) for 3 days. CD4+ T cells propagated under TH17-polarizing conditions were cultured in the presence or absence of various concentrations of compounds with a final concentration of 0.1% DMSO. Supernatants were collected and stored at −20° C. until assayed for IL-17A, IL-17F and IL-21 levels by “Ready-Set-Go” ELISA kits (eBioscience) as per manufacturer's instructions. Endpoint absorbance was read at 450 nm using a microplate reader (Perkin Elmer).

IL-17F = assay: Human TH17 cytokine inhibition measured by ELISA: IL-17F
Experimental: as §1, §2

IL-17A = assay: Human TH17 cytokine inhibition measured by ELISA: IL-17A
Experimental: as §1, §2

IL-22 = assay: Human TH17 cytokine inhibition measured by ELISA: IL-22

IC50 (IL-21) [µM] | IC50 (IL-17F) [µM] | IC50 (IL-17A) [µM] | IC50 (IL-22) [µM] | SMILES
< 10 | < 10 | < 10 |  | C[C@@H]1C[C@H](Cn2ccc3cc(-c4cn[nH]c4)ccc32)CN1S(=O)(=O)c1ccccc1 (racemic) [Example 47, rac.-cis-1-((-5-methyl-1-(phenylsulfonyl)pyrrolidin-3-yl)methyl)-5-(1H-pyrazol-4-yl)-1H-indole]
< 10 | < 10 | < 10 |  | C[C@H]1C[C@H](Cn2ccc3cc(-c4cn[nH]c4)ccc32)CN1S(=O)(=O)c1ccccc1 (racemic) [Example 48, rac.-trans-1-((-5-methyl-1-(phenylsulfonyl)pyrrolidin-3-yl)methyl)-5-(1H-pyrazol-4-yl)-1H-indole]
< 10 | < 10 | < 10 |  | O=S(=O)(c1ccccc1)N1CCC(Cn2ccc3cc(-c4cn[nH]c4)ccc32)CC1 [Example 5, 1-((1-(phenylsulfonyl)piperidin-4-yl)methyl)-5-(1H-pyrazol-4-yl)-1H-indole]
> 10 | < 10 | < 10 |  | O=S(=O)(Cc1ccccc1)N1CCC(Cn2ccc3cc(-c4cn[nH]c4)ccc32)CC1 [Example 6, 1-((1-(benzylsulfonyl)piperidin-4-yl)methyl)-5-(1H-pyrazol-4-yl)-1H-indole]
< 10 | < 10 | < 10 |  | O=S(=O)(CCc1ccccc1)N1CCC(Cn2ccc3cc(-c4cn[nH]c4)ccc32)CC1 [Example 7, 1-((1-(phenethylsulfonyl)piperidin-4-yl)methyl)-5-(1H-pyrazol-4-yl)-1H-indole]
> 10 | > 10 | > 10 |  | O=S(=O)(CC(F)(F)F)N1CCC(Cn2ccc3cc(-c4cn[nH]c4)ccc32)CC1 [Example 8, 5-(1H-pyrazol-4-yl)-1-((1-((2,2,2-trifluoroethyl)sulfonyl)piper-idin-4-yl)methyl)-1H-indole]
< 10 | < 10 | < 10 |  | CC1(C)CC(Cn2ccc3cc(-c4cn[nH]c4)ccc32)CN1S(=O)(=O)c1ccccc1 (stereo not shown) [Example 29, 1-((5,5-dimethyl-1-(phenylsulfonyl)pyrrolidin-3-yl)methyl)-5-(1H-pyrazol-4-yl)-1H-indole]
< 10 | < 10 | < 10 | < 10 | O=S(=O)(c1ccc(Cl)cc1)N1CCC(Cn2ccc3cc(-c4cn[nH]c4)ccc32)CC1 [Example 36, 1-((1-(4-chlorophenylsulfonyl)piperidin-4-yl)methyl)-5-(1H-pyrazol-4-yl)-1H-indole]
< 10 | < 10 | < 10 | < 10 | O=S(=O)(c1cccnc1)N1CCC(Cn2ccc3cc(-c4cn[nH]c4)ccc32)CC1 [Example 38, 5-(1H-pyrazol-4-yl)-1-((1-(pyridin-3-ylsulfonyl)piperidin-4-yl)methyl)-1H-indole]
< 10 | < 10 | < 10 | < 10 | O=S(=O)(c1ccccc1F)N1CCC(Cn2ccc3cc(-c4cn[nH]c4)ccc32)CC1 [Example 40, 1-((1-(2-fluorophenylsulfonyl)piperidin-4-yl)methyl)-5-(1H-pyrazol-4-yl)-1H-indole]
> 10 | > 10 | > 10 | > 10 | CS(=O)(=O)N1CCC(Cn2ccc3cc(-c4cn[nH]c4)ccc32)CC1 [Example 50, 1-((1-(methylsulfonyl)piperidin-4-yl)methyl)-5-(1H-pyrazol-4-yl)-1H-indole]
